Results on 1 molecule are retold here after patent publication US20090318379A1, “Statins for the Treatment of Viral Influenza Infections” (priority 2006, published 2009).

In data set [1] the test system is Influenza A H5N1. Type of data set: cell-based, Influenza A H5N1 (isolated in 1997 from human).
Data set [2] concerns MDCK cells.
The test system of data set [3] is MDCK cells. This is another data set of the same source.
Data set [4] deals with Influenza A H5N1. Type of data set: cell-based, Influenza A H5N1 (isolated in 1997 from human). This is another data set of the same source.
Data set [5] has as its system Influenza A H5N1. Type of data set: cell-based, Influenza A H5N1 (isolated in 1997 from human). The source holds these as a separate data set.
Data set [6] deals with MDCK cells. The source holds these as a separate data set.

Structures are written as SMILES. Like-named read-outs stand apart in the source and are kept apart here.

Turning to `NC(=O)c1ncn([C@@H]2O[C@H](CO)[C@@H](O)[C@H]2O)n1` [RIBAVIRIN, Ribavirin, reference compound], in the data set with Influenza A H5N1 [1], the Number of plaques is listed as 11000. The Cytotoxicity result in the data set with MDCK cells [2] was “No”. For the same molecule, the Cytotoxicity entry with MDCK cells [3] is listed as “No”. For the same molecule, in the data set on Influenza A H5N1 [4], the “No. of plaque 1st well” value turned out to be 134, the “No. of plaque 2nd well” value was found to be 131 and the “No. of plaque 3rd well” value was 132. For the same molecule, the No. of plaque in the data set on Influenza A H5N1 [5] came out at 0. Besides, the “Cytotoxicity in virus yield reduction assay” value in the data set on MDCK cells [6] is “No”.
